Test results reported in paper PMC6352943, “Novel pyrazolo[3,4-d]pyrimidines: design, synthesis, anticancer activity, dual EGFR/ErbB2 receptor tyrosine kinases inhibitory activity, effects on cell cycle profile and caspase-3-mediated apoptosis” (Journal of Enzyme Inhibition and Medicinal Chemistry, 2019).

What was measured:
HOP-62 = experiment: NCI 60 cell line single dose screen (SRB); type: cell-based; conditions: Homo sapiens; HOP-62 (non-small cell lung cancer), single dose 10^−5 M, 48 h; read-out: Growth inhibition percentage
In short: (§1)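 Cells were plated and grown 24 h at 37 °C, 5% CO2 before compound addition from DMSO stock, then exposed 48 h. Adherent cells were fixed with cold TCA (final 10%) and suspension cells with 16% TCA. SRB-stained protein was read at 515 nm and percent growth was calculated against time-zero and untreated plates.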

NCI-H460 = experiment: NCI 60 cell line single dose screen (SRB); type: cell-based; conditions: Homo sapiens; NCI-H460 (non-small cell lung cancer), single dose 10^−5 M, 48 h; read-out: Growth inhibition percentage
In short: as §1

KM12 = experiment: NCI 60 cell line single dose screen (SRB); type: cell-based; conditions: Homo sapiens; KM12 (colon cancer), single dose 10^−5 M, 48 h; read-out: Growth inhibition percentage
In short: as §1

TK-10 = experiment: NCI 60 cell line single dose screen (SRB); type: cell-based; conditions: Homo sapiens; TK-10 (renal cancer), single dose 10^−5 M, 48 h; read-out: Growth inhibition percentage
In short: as §1

U251 = experiment: NCI 60 cell line single dose screen (SRB); type: cell-based; conditions: Homo sapiens, U-251; U251 (CNS cancer), single dose 10^−5 M, 48 h; read-out: Growth inhibition percentage
In short: as §1

BT-549 = experiment: NCI 60 cell line single dose screen (SRB); type: cell-based; conditions: Homo sapiens; BT-549 (breast cancer), single dose 10^−5 M, 48 h; read-out: Growth inhibition percentage
In short: as §1

COLO 205 = experiment: NCI 60 cell line single dose screen (SRB); type: cell-based; conditions: Homo sapiens, COLO 205, 48 h; read-out: Growth inhibition percentage
In short: as §1

SF-295 = experiment: NCI 60 cell line single dose screen (SRB); type: cell-based; conditions: Homo sapiens; SF-295 (CNS cancer), single dose 10^−5 M, 48 h; read-out: Growth inhibition percentage
In short: as §1

IGROV1 = experiment: NCI 60 cell line single dose screen (SRB); type: cell-based; conditions: Homo sapiens, IGROV-1; IGROV1 (ovarian cancer), single dose 10^−5 M, 48 h; read-out: Growth inhibition percentage
In short: as §1

SN12C = experiment: NCI 60 cell line single dose screen (SRB); type: cell-based; conditions: Homo sapiens; SN12C (renal cancer), single dose 10^−5 M, 48 h; read-out: Growth inhibition percentage
In short: as §1

NCI/ADR-RES = experiment: NCI 60 cell line single dose screen (SRB); type: cell-based; conditions: Homo sapiens; NCI/ADR-RES (ovarian cancer), single dose 10^−5 M, 48 h; read-out: Growth inhibition percentage
In short: as §1

MDA-MB-468 = experiment: NCI 60 cell line single dose screen (SRB); type: cell-based; conditions: Homo sapiens; MDA-MB-468 (breast cancer), single dose 10^−5 M, 48 h; read-out: Growth inhibition percentage
In short: as §1

OVCAR-8 = experiment: NCI 60 cell line single dose screen (SRB); type: cell-based; conditions: Homo sapiens; OVCAR-8 (ovarian cancer), single dose 10^−5 M, 48 h; read-out: Growth inhibition percentage
In short: as §1

HCT-15 = experiment: NCI 60 cell line single dose screen (SRB); type: cell-based; conditions: Homo sapiens; HCT-15 (colon cancer), single dose 10^−5 M, 48 h; read-out: Growth inhibition percentage
In short: as §1

RXF 393 = experiment: NCI 60 cell line single dose screen (SRB); type: cell-based; conditions: Homo sapiens; RXF 393 (renal cancer), single dose 10^−5 M, 48 h; read-out: Growth inhibition percentage
In short: as §1

HCC-2998 = experiment: NCI 60 cell line single dose screen (SRB); type: cell-based; conditions: Homo sapiens; HCC-2998 (colon cancer), single dose 10^−5 M, 48 h; read-out: Growth inhibition percentage
In short: as §1

COc1cc(C=NNc2ncnc3c2c(C)nn3-c2ccc(F)cc2)ccc1O [Compound 10b, 1–(4-Fluorophenyl)-4–(2-(4-hydroxy-3-methoxybenzylidene)-hydrazinyl)-3-methyl-1H-pyrazolo[3,4-d]pyrimidine]
inhibition at 10 µM (HOP-62): -6.39%
inhibition at 10 µM (NCI-H460): 11.9%
inhibition at 10 µM (KM12): 28.1%
inhibition at 10 µM (TK-10): 11.3%
inhibition at 10 µM (U251): 5.64%
inhibition at 10 µM (BT-549): 9.63%
inhibition at 10 µM (COLO 205): -4.39%
inhibition at 10 µM (SF-295): -5.51%
inhibition at 10 µM (IGROV1): 20.6%
inhibition at 10 µM (SN12C): 14.9%
inhibition at 10 µM (NCI/ADR-RES): 4.3%
inhibition at 10 µM (MDA-MB-468): 8.05%
inhibition at 10 µM (OVCAR-8): 3.64%
inhibition at 10 µM (HCT-15): 18.9%
inhibition at 10 µM (RXF 393): 4.9%
inhibition at 10 µM (HCC-2998): 0.27%
melting point: 221 to 223 °C

Cc1ccc(Nc2ncnc3c2c(C)nn3-c2ccc(F)cc2)cc1 [Compound 7c, 1–(4-Fluorophenyl)-3-methyl-N-(p-tolyl)-1H-pyrazolo[3,4-d]-pyrimidin-4-amine]
inhibition at 10 µM (HOP-62): -14.5%
inhibition at 10 µM (NCI-H460): -9.33%
inhibition at 10 µM (KM12): -1.11%
inhibition at 10 µM (TK-10): 9.04%
inhibition at 10 µM (U251): 2.65%
inhibition at 10 µM (BT-549): -8.83%
inhibition at 10 µM (COLO 205): -13.3%
inhibition at 10 µM (SF-295): -3.83%
inhibition at 10 µM (IGROV1): 1.54%
inhibition at 10 µM (SN12C): 48.4%
inhibition at 10 µM (NCI/ADR-RES): -6.46%
inhibition at 10 µM (MDA-MB-468): -15%
inhibition at 10 µM (OVCAR-8): 2.02%
inhibition at 10 µM (HCT-15): -0.49%
inhibition at 10 µM (RXF 393): -13.7%
inhibition at 10 µM (HCC-2998): 1.34%

Cc1nn(-c2ccc(F)cc2)c2ncnc(Cl)c12 [Compound 6, 4-Chloro-1–(4-fluorophenyl)-3-methyl-1H-pyrazolo[3,4-d]pyrimidine]
inhibition at 10 µM (HOP-62): 15.4%
inhibition at 10 µM (NCI-H460): -0.07%
inhibition at 10 µM (KM12): 0.99%
inhibition at 10 µM (TK-10): -23%
inhibition at 10 µM (U251): 5.15%
inhibition at 10 µM (BT-549): -11.5%
inhibition at 10 µM (COLO 205): -14.9%
inhibition at 10 µM (SF-295): -4.11%
inhibition at 10 µM (IGROV1): 24.4%
inhibition at 10 µM (SN12C): 1.02%
inhibition at 10 µM (NCI/ADR-RES): -8.11%
inhibition at 10 µM (MDA-MB-468): 8.7%
inhibition at 10 µM (OVCAR-8): 6.34%
inhibition at 10 µM (HCT-15): 1.32%
inhibition at 10 µM (RXF 393): -3.61%
inhibition at 10 µM (HCC-2998): -5.66%
melting point: 178 to 180 °C

Cc1nn(-c2ccc(F)cc2)c2ncnc(N3CCOCC3)c12 [Compound 8a, 1–(4-Fluorophenyl)-3-methyl-4-morpholino-1H-pyrazolo[3,4-d]pyrimidine]
inhibition at 10 µM (HOP-62): -13.6%
inhibition at 10 µM (NCI-H460): -8.23%
inhibition at 10 µM (KM12): 0.04%
inhibition at 10 µM (TK-10): 9.75%
inhibition at 10 µM (U251): -1.7%
inhibition at 10 µM (BT-549): 3.96%
inhibition at 10 µM (COLO 205): -7.19%
inhibition at 10 µM (SF-295): 0.61%
inhibition at 10 µM (IGROV1): -3.29%
inhibition at 10 µM (SN12C): 1.12%
inhibition at 10 µM (NCI/ADR-RES): -6.35%
inhibition at 10 µM (MDA-MB-468): -7.8%
inhibition at 10 µM (OVCAR-8): -5.87%
inhibition at 10 µM (HCT-15): -2.04%
inhibition at 10 µM (RXF 393): -15.7%
inhibition at 10 µM (HCC-2998): 2.41%

Cc1nn(-c2ccc(F)cc2)c2ncnc(N)c12 [Compound 4, 1–(4-Fluorophenyl)-3-methyl-1H-pyrazolo[3,4-d]pyrimidin-4-amine]
inhibition at 10 µM (HOP-62): -8.24%
inhibition at 10 µM (NCI-H460): -9.3%
inhibition at 10 µM (KM12): 3.5%
inhibition at 10 µM (TK-10): -4.14%
inhibition at 10 µM (U251): -7.56%
inhibition at 10 µM (BT-549): 9.79%
inhibition at 10 µM (COLO 205): -18.4%
inhibition at 10 µM (SF-295): -3.53%
inhibition at 10 µM (IGROV1): 11.1%
inhibition at 10 µM (SN12C): -1.4%
inhibition at 10 µM (NCI/ADR-RES): 0.66%
inhibition at 10 µM (MDA-MB-468): -13.2%
inhibition at 10 µM (OVCAR-8): -4.64%
inhibition at 10 µM (HCT-15): -4.62%
inhibition at 10 µM (RXF 393): -17.3%
inhibition at 10 µM (HCC-2998): -2.52%
melting point: > 300 °C

COc1cc(C=NNc2ncnc3c2c(C)nn3-c2ccc(F)cc2)cc(OC)c1OC [Compound 10c, 1–(4-Fluorophenyl)-3-methyl-4–(2-(3,4,5-trimethoxybenzylidene)-hydrazinyl)-1H-pyrazolo[3,4-d]pyrimidine]
inhibition at 10 µM (HOP-62): 0.38%
inhibition at 10 µM (NCI-H460): -3.23%
inhibition at 10 µM (KM12): 5.82%
inhibition at 10 µM (TK-10): -36.3%
inhibition at 10 µM (U251): 0.92%
inhibition at 10 µM (BT-549): -1.06%
inhibition at 10 µM (COLO 205): -6.78%
inhibition at 10 µM (SF-295): -2.66%
inhibition at 10 µM (IGROV1): 26.6%
inhibition at 10 µM (SN12C): 4.99%
inhibition at 10 µM (NCI/ADR-RES): -2.25%
inhibition at 10 µM (MDA-MB-468): -4.81%
inhibition at 10 µM (OVCAR-8): -1.23%
inhibition at 10 µM (HCT-15): -5.3%
inhibition at 10 µM (RXF 393): 3.39%
inhibition at 10 µM (HCC-2998): 2.74%
melting point: 222 to 224 °C

COc1ccc(N2CCN(c3ncnc4c3c(C)nn4-c3ccc(F)cc3)CC2)cc1 [Compound 8d, 1–(4-Fluorophenyl)-4–(4-(4-methoxyphenyl)piperazin-1-yl)-3-methyl-1H-pyrazolo[3,4-d]pyrimidine]
inhibition at 10 µM (HOP-62): 1.51%
inhibition at 10 µM (NCI-H460): -4.87%
inhibition at 10 µM (KM12): 0.4%
inhibition at 10 µM (TK-10): -48%
inhibition at 10 µM (U251): -2.5%
inhibition at 10 µM (BT-549): 2.13%
inhibition at 10 µM (COLO 205): -7.56%
inhibition at 10 µM (SF-295): -2.4%
inhibition at 10 µM (IGROV1): 9.45%
inhibition at 10 µM (SN12C): 6.31%
inhibition at 10 µM (NCI/ADR-RES): -3.7%
inhibition at 10 µM (MDA-MB-468): 0.37%
inhibition at 10 µM (OVCAR-8): 1.33%
inhibition at 10 µM (HCT-15): -5.55%
inhibition at 10 µM (RXF 393): -9.45%
inhibition at 10 µM (HCC-2998): 3.59%

Cc1nn(-c2ccc(F)cc2)c2ncnc(Nc3ccc(F)c(Cl)c3)c12 [Compound 7d, N-(3-Chloro-4-fluorophenyl)-1–(4-fluorophenyl)-3-methyl-1H-pyrazolo[3,4-d] pyrimidin-4-amine]
inhibition at 10 µM (HOP-62): 38.7%
inhibition at 10 µM (NCI-H460): 58.5%
inhibition at 10 µM (KM12): 1.96%
inhibition at 10 µM (TK-10): -6.68%
inhibition at 10 µM (U251): 24%
inhibition at 10 µM (BT-549): -4.84%
inhibition at 10 µM (COLO 205): -3.96%
inhibition at 10 µM (SF-295): 40%
inhibition at 10 µM (IGROV1): 27.6%
inhibition at 10 µM (SN12C): 21.5%
inhibition at 10 µM (NCI/ADR-RES): 5.13%
inhibition at 10 µM (MDA-MB-468): -1.69%
inhibition at 10 µM (OVCAR-8): 16.6%
inhibition at 10 µM (HCT-15): 2.75%
inhibition at 10 µM (RXF 393): -0.39%
inhibition at 10 µM (HCC-2998): 1.79%
